Entries after “also recorded” stand apart in the source; their conditions may differ. Where no end group is shown, it is not given here.
Columns and labels:
ERK = experiment: Growth factor-induced ERK phosphorylation in HUVEC (western blot); type: cell-based, Human
Experimental: (§1) Cell culture. Human umbilical vein endothelial cells (HUVEC) and pulmonary aortic smooth muscle cells (PASMC) were obtained from Clonetics and maintained in endothelial cell basal medium-2, (EBM-2; Clonetics) and smooth muscle medium-2 (SmGM-2; Clonetics), respectively. Cells were cultured at 37° C. under a humidified atmosphere containing 5% CO2. For experimental purposes, cells were plated in 8 100-mm plastic dishes at 5,000 cells/cm^2 and were grown to confluence before overnight serum starvation. Cells were treated with vehicle or with a PCK3145 derivative diluted in 0.1 N NaOH, and stimulated with 50 ng/ml VEGF, PDGF or with 1 μM S1P.
Immunoprecipitation and immunoblotting procedures. After treatment, cells were washed once with phosphate-buffered saline (PBS) containing 1 mM sodium orthovanadate and were incubated in the same medium for 1 h at 4° C. The cells were solubilized on ice in lysis buffer (150 mM NaCl, 10 mM Tris-HCl, pH 7.4, 1 mM EDTA, 1 mM EGTA, 0.5% Nonidet P-40, 1% Triton X-100) containing 1 mM sodium orthovanadate. The cells were then scraped from the culture dishes and the resulting lysates were clarified by centrifugation at 10,000 g for 10 min. Protein concentrations were determined using the micro bicinchoninic acid method. For immunoprecipitation studies, lysates were clarified by a 1 h incubation at 4° C. with a mixture of Protein A/Protein G Sepharose beads. After removal of the Sepharose beads by low-speed centrifugation, identical amounts of protein (200 μg) from each sample were transferred to fresh tubes and incubated in lysis buffer overnight at 4° C. in the presence of 2 μg/ml of specific antibodies. Immunocomplexes were collected by incubating the mixture with 25 μl (50% suspension) of Protein A—(rabbit primary antibody) or Protein G—(mouse primary antibody) Sepharose beads, for 2 h. Nonspecifically-bound material was removed by washing the beads three times in 1 ml of lysis buffer containing 1 mM sodium orthovanadate, and bound material was solubilized in 25 μl of two-fold concentrated Laemmli sample buffer, boiled 5 min, and resolved by SDS-PAGE. The proteins were transferred onto polyvinylidene difluoride (PVDF) membranes, blocked 1 h at room temperature with Tris-buffered saline/Tween 20 (147 mM NaCl, 20 mM Tris/HCl, pH 7.5, and 0.1% Tween 20) containing 2% bovine serum albumin and incubated overnight at 4° C. with primary antibody.
VEGF is a strong activator of ERKs (Extracellular-signal-Regulated protein Kinases) 1 and 2 via VEGF receptor 2. In order to test the ability of the PCK3145 derivative in potentially antagonizing VEGF-mediated ERK phosphorylation, serum-starved quiescent endothelial cells (HUVEC) were incubated with vehicle (phosphate-buffered saline (PBS) pH 7.4) or PCK3145 derivative (300 μg/ml) for 24 h and then stimulated with VEGF, bFGF (basic Fibroblast Growth Factor) or S1P (sphingosine-1-phosphate). Cells were washed with PBS containing NaF/Na3VO4 and incubated in the same medium buffer for 1 h at 4° C. The cells were scraped from the culture dishes and the resulting lysates clarified by centrifugation. Western blotting and immunodetection using anti-phosphoERK and anti-ERK antibodies was then performed.

VEGFR-2 = molecular target: T1, VEGFR-2 (Homo sapiens, UniProt P35968); experiment: VEGF-induced VEGFR-2 phosphorylation in HUVEC (immunoprecipitation, western blot); type: cell-based
T1 construct: host or cells: HUVEC
T1 sequence (P35968 20-1356): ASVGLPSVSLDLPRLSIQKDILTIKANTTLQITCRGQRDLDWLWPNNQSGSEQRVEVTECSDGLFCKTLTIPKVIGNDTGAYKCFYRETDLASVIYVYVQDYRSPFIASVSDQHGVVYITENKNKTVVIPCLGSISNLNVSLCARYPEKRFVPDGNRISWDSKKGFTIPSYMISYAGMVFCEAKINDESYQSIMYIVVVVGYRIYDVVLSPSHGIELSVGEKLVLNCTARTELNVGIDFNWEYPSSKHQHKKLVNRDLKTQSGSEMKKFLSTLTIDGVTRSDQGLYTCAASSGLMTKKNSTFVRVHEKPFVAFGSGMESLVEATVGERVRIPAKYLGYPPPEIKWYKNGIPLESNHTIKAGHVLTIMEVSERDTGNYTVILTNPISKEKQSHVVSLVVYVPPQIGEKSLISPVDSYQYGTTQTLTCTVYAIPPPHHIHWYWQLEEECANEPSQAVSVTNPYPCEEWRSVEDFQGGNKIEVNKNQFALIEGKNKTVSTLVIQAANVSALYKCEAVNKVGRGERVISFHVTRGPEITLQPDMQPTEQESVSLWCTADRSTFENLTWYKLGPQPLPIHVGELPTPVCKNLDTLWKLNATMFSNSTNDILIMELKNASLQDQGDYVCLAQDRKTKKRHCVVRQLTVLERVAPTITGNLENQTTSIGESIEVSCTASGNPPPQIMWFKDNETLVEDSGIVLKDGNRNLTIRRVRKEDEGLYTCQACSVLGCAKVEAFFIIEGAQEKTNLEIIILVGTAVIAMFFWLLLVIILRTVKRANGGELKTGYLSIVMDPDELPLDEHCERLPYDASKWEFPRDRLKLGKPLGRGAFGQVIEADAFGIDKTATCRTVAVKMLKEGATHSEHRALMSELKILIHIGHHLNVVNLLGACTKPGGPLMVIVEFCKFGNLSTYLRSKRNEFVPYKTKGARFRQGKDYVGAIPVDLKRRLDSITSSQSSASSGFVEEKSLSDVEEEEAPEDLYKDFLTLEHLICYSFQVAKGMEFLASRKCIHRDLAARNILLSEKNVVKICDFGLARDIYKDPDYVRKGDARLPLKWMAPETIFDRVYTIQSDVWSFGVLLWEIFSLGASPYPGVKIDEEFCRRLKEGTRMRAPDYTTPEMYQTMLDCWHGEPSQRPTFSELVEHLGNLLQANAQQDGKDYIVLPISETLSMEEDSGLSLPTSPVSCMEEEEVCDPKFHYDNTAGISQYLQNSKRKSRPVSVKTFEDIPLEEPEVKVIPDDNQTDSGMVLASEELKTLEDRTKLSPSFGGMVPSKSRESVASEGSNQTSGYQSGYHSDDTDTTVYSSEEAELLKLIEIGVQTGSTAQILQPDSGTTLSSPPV
Experimental: as §1
Immunoprecipitation and immunoblotting procedures. After treatment, cells were washed once with phosphate-buffered saline (PBS) containing 1 mM sodium orthovanadate and were incubated in the same medium for 1 h at 4° C. The cells were solubilized on ice in lysis buffer (150 mM NaCl, 10 mM Tris-HCl, pH 7.4, 1 mM EDTA, 1 mM EGTA, 0.5% Nonidet P-40, 1% Triton X-100) containing 1 mM sodium orthovanadate. The cells were then scraped from the culture dishes and the resulting lysates were clarified by centrifugation at 10,000 g for 10 min. Protein concentrations were determined using the micro bicinchoninic acid method. For immunoprecipitation studies, lysates were clarified by a 1 h incubation at 4° C. with a mixture of Protein A/Protein G Sepharose beads. After removal of the Sepharose beads by low-speed centrifugation, identical amounts of protein (200 μg) from each sample were transferred to fresh tubes and incubated in lysis buffer overnight at 4° C. in the presence of 2 μg/ml of specific antibodies. […]
The multifunctionality of VEGF at the cellular level results from its ability to initiate a diverse, complex and integrated network of signaling pathways via its major receptor, VEGFR-2. […] After each treatment, equal amounts of protein were immunoprecipitated with anti-VEGFR-2 polyclonal antibodies and analysed by Western blotting.

Q: With “EWQTDNCETCTCYET (cysteine pairing not given here)” as the sequence, how does the “time-course of effect on VEGF-induced ERK phosphorylation” value (ERK; HUVEC, 3 and 24 hrs) read?
A: necessity of a long term action

Q: And the “total amount of ERK” value (ERK; HUVEC, each sample of cells)?
A: unaffected

Q: What about the “dose-response of ERK phosphorylation by VEGF” value (ERK; HUVEC, increasing doses) of the same sequence?
A: gradually inhibit

Q: And the “ERK phosphorylation induced by VEGF” value (ERK; serum-starved HUVEC, 300 μg/ml for 24 h, then VEGF)?
A: specific inhibitory effect; also recorded: comparable to that of PD98059

Q: What about the “ERK phosphorylation induced by bFGF” value (ERK; serum-starved HUVEC, 300 μg/ml for 24 h, then bFGF) of the same sequence?
A: not that induced by bFGF

Q: And the “dose dependence of inhibition of VEGF-induced VEGFR-2 phosphorylation” value (VEGFR-2; HUVEC)?
A: dose-dependent

Q: What about the “phosphorylation of VEGFR-2 induced by VEGF” value (VEGFR-2; serum-starved HUVEC, 300 μg/ml, 24 h) of the same sequence?
A: inhibited

Source: US20050148514A1, “Method and composition for treatment of angiogenesis” (priority 2003, published 2005)
